Assay results taken from ChEMBL document CHEMBL1201862, “PubChem BioAssay data set” (2004).
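Five concentrations, 48 hours, 96-well plates. Abbreviation: GI50, concentration required for 50% inhibition of growth.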 Active and inactive are the calls of the source. Rule as the data show it: active = GI50 up to about 1.1 µM and inactive = higher.

Assays:
Test in all cases: NCI-60 cell line screen, 48 h
786-0 = tested on: 786-0
MDA-N = tested on: MDA-N
SK-MEL-2 = tested on: SK-MEL-2
HOP-92 = tested on: HOP-92
PC-3 = tested on: PC-3
NCI-H226 = tested on: NCI-H226
RXF 393 = tested on: RXF 393
SNB-19 = tested on: SNB-19
CAKI-1 = tested on: CAKI-1
UACC-62 = tested on: UACC-62
HT-29 = tested on: HT-29
ACHN = tested on: ACHN
T47D = tested on: T47D
HL-60 = tested on: HL-60
SF-295 = tested on: SF-295
A549 = tested on: A549
MDA-MB-231 = tested on: MDA-MB-231
SW-620 = tested on: SW-620
Malme-3M = tested on: Malme-3M
NCI-H522 = tested on: NCI-H522

Measured: GI50

CO/C=C(/C(=O)OC)c1ccccc1Oc1c(F)c(F)c(F)c(F)c1F
inactive: 786-0 33.7 µM | MDA-N 41.6 µM | SK-MEL-2 24.2 µM | HOP-92 19.6 µM | PC-3 34.8 µM | NCI-H226 38.2 µM | RXF 393 20.7 µM | SNB-19 57.4 µM | CAKI-1 12.8 µM | UACC-62 21.9 µM | HT-29 32.4 µM | ACHN 50.4 µM | T47D 21.2 µM | SF-295 54.5 µM | A549 34.8 µM | MDA-MB-231 29.5 µM
active: HL-60 < 0.01 µM

CC[C@@H](C)[C@H](NC(=O)[C@H](Cc1ccccc1)NCC(F)(F)F)C(=O)OC(C)(C)C
inactive: SW-620 > 100 µM | 786-0 > 100 µM | MDA-N > 100 µM | HOP-92 > 100 µM | PC-3 91.6 µM | NCI-H226 19.6 µM | RXF 393 42 µM | SNB-19 > 100 µM | CAKI-1 > 100 µM | UACC-62 47.8 µM | HT-29 > 100 µM | Malme-3M > 100 µM | ACHN > 100 µM | T47D 25.6 µM | HL-60 > 100 µM | SF-295 > 100 µM | A549 > 100 µM | NCI-H522 > 100 µM | MDA-MB-231 > 100 µM

CCCNC(=O)c1cc(NC(=O)c2cc(NC(=O)CCS(=O)(=O)OC)cn2C)cn1C
inactive: SW-620 6.27 µM | 786-0 23.7 µM | MDA-N 20.9 µM | SK-MEL-2 18.3 µM | HOP-92 3.76 µM | PC-3 10.2 µM | RXF 393 14.4 µM | SNB-19 2.21 µM | CAKI-1 > 52 µM | UACC-62 19.8 µM | HT-29 22 µM | Malme-3M 8.41 µM | ACHN 52.4 µM | T47D 5.11 µM | SF-295 > 69.8 µM | A549 > 91 µM | NCI-H522 1.87 µM | MDA-MB-231 33.8 µM

O=c1oc2ccccc2cc1-c1cn2ccccc2n1
inactive: SW-620 10.4 µM | 786-0 3.8 µM | MDA-N 4.88 µM | SK-MEL-2 5 µM | HOP-92 16.6 µM | PC-3 4.26 µM | NCI-H226 8.43 µM | RXF 393 3.85 µM | SNB-19 3.32 µM | CAKI-1 5.75 µM | UACC-62 4.65 µM | HT-29 12.6 µM | Malme-3M 3.22 µM | ACHN 3.49 µM | T47D 14.6 µM | SF-295 3.66 µM | A549 5.48 µM | NCI-H522 3.31 µM | MDA-MB-231 6.4 µM

CC(CC(=O)O)(CC(=O)O)C(=O)O
inactive: SW-620 > 100 µM | 786-0 > 100 µM | MDA-N > 100 µM | SK-MEL-2 > 100 µM | HOP-92 > 100 µM | PC-3 > 100 µM | RXF 393 > 100 µM | SNB-19 > 100 µM | CAKI-1 > 100 µM | UACC-62 > 100 µM | HT-29 > 100 µM | Malme-3M > 100 µM | ACHN > 100 µM | T47D > 100 µM | SF-295 > 100 µM | A549 > 100 µM | NCI-H522 > 100 µM | MDA-MB-231 > 100 µM

C#CC(O)Cc1ccc(OC)c2occc12 (stereo not given)
inactive: SW-620 > 100 µM | 786-0 > 100 µM | MDA-N > 100 µM | SK-MEL-2 > 100 µM | HOP-92 > 100 µM | PC-3 > 100 µM | NCI-H226 > 100 µM | RXF 393 > 100 µM | SNB-19 > 100 µM | CAKI-1 > 100 µM | UACC-62 > 100 µM | HT-29 > 100 µM | Malme-3M > 100 µM | ACHN > 100 µM | T47D > 100 µM | SF-295 > 100 µM | A549 > 100 µM | NCI-H522 > 100 µM | MDA-MB-231 > 100 µM

CCOC(=O)c1cn2c(n1)sc1cc(Cl)ccc12
inactive: SW-620 4.75 µM | 786-0 6.58 µM | MDA-N 2.71 µM | SK-MEL-2 > 100 µM | HOP-92 > 100 µM | PC-3 30.6 µM | NCI-H226 72.6 µM | RXF 393 45 µM | SNB-19 8.28 µM | CAKI-1 19.2 µM | UACC-62 59.7 µM | HT-29 17 µM | Malme-3M 13.1 µM | ACHN 14.5 µM | T47D 57.8 µM | SF-295 35.2 µM | A549 15.6 µM | NCI-H522 31.2 µM | MDA-MB-231 > 100 µM

CC1C[C@]2(C)C(=S)Nc3ccccc3[C@@H]2Nc2ccccc21 (stereo not given in full)
inactive: SW-620 25.9 µM | 786-0 16.3 µM | MDA-N 15 µM | SK-MEL-2 13 µM | HOP-92 12.2 µM | PC-3 15.4 µM | NCI-H226 17.3 µM | RXF 393 19 µM | SNB-19 21.7 µM | CAKI-1 25.4 µM | UACC-62 18 µM | HT-29 11.9 µM | Malme-3M 15.9 µM | ACHN 19.3 µM | T47D 17.9 µM | HL-60 33.5 µM | SF-295 18.5 µM | A549 19.1 µM | MDA-MB-231 13.2 µM

CSc1nc(C)c(CCOC(C)=O)c(Cl)n1
inactive: SW-620 > 100 µM | 786-0 > 100 µM | MDA-N > 100 µM | HOP-92 > 100 µM | PC-3 > 100 µM | NCI-H226 > 100 µM | RXF 393 > 100 µM | SNB-19 > 100 µM | CAKI-1 > 100 µM | UACC-62 > 100 µM | HT-29 > 100 µM | Malme-3M > 100 µM | ACHN > 100 µM | T47D > 100 µM | HL-60 > 100 µM | SF-295 > 100 µM | A549 > 100 µM | NCI-H522 > 100 µM | MDA-MB-231 > 100 µM

CCCn1c(=O)c2ccccc2[n+]2c(-c3ccc([N+](=O)[O-])cc3)csc12
inactive: SW-620 43.9 µM | 786-0 26.2 µM | MDA-N 31.3 µM | SK-MEL-2 35.7 µM | HOP-92 32.4 µM | PC-3 18.1 µM | NCI-H226 29.4 µM | RXF 393 18.1 µM | SNB-19 25.7 µM | CAKI-1 40.9 µM | UACC-62 32.7 µM | HT-29 25 µM | ACHN 35.9 µM | T47D 30.6 µM | HL-60 24.4 µM | SF-295 30.8 µM | A549 47 µM | NCI-H522 18 µM | MDA-MB-231 33.7 µM

O=C1COCCN1C(=O)c1ccccc1Cl
inactive: SW-620 > 100 µM | 786-0 > 100 µM | MDA-N > 100 µM | HOP-92 > 100 µM | PC-3 > 100 µM | NCI-H226 > 100 µM | RXF 393 > 100 µM | SNB-19 > 100 µM | CAKI-1 > 100 µM | UACC-62 > 100 µM | HT-29 > 100 µM | Malme-3M > 100 µM | ACHN > 100 µM | T47D > 100 µM | HL-60 > 100 µM | SF-295 > 100 µM | A549 > 100 µM | NCI-H522 > 100 µM | MDA-MB-231 > 100 µM
